Read-outs that look alike come from different tables or passages of the source.
Molecular target: T1, human GPR119 receptor (Homo sapiens, UniProt Q8TDV5)
T1 construct: expressed in transfected cells
T1 sequence (Q8TDV5 1-335): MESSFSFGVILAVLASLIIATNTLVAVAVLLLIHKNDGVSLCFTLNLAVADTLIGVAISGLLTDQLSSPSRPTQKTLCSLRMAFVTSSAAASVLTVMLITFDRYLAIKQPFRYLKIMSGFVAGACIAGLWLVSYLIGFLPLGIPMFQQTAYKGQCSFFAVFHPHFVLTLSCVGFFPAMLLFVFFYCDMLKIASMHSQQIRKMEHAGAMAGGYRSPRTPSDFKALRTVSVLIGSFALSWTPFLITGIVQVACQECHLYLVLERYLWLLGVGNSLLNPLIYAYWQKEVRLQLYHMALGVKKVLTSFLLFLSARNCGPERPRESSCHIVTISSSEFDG
Test: Human GPR119 Activity Assay (cAMP, HTRF)
Assay type: cell-based
Procedure: Human GPR119 Activity Assay
Agonists to the human GPR119 receptor were characterized by measuring human GPR119 receptor-mediated stimulation of cyclic AMP (cAMP) in HEK 293 cells expressing the human GPR119 receptor.
Briefly, cAMP content was determined using a cAMP kit based on HTRF technology (Homogeneous Time-Resolved Fluorescence, Cisbio Cat. no. 62AM2PEC). HEK293 cells stably expressing the human GPR119 receptor (HEK293-hGPR119 cells) were cultured in DMEM (Gibco # 31966-021) supplemented with 10% Bovine Calf Serum (Hyclone # SH30072.03), and, 500 μg/mL Hygromycin B (Roche Diagnostics 843555). At 80% confluency, cells were detached using Trypsine and aliquoted at a density of 5×10^6 cells/mL in freezing medium (DMEM (Gibco # 31966-021), 20% BCS (Hyclone # SH30072.03), 10% DMSO (Sigma #D2650) and stored at −135° C. On the experimental day, HEK293-hGPR119 cells were thawn and diluted to 0.4×10^6 cells/mL in assay buffer (1×HBSS (Gibco Cat. no. 14025-049), 20 mM Hepes (Gibco Cat. no. 15630-056), 0.1% BSA, pH 7.4) and incubated with test substances for 20 min at room temperature. After addition of HTRF reagents diluted in lysis buffer, the 96- or 384-well plates were incubated 1 hour, followed by measuring the fluorescence ratio at 665 nm/620 nm. Test substances was diluted in compound buffer (1×HBSS (Gibco Cat. no. 14025-049), 20 mM Hepes (Gibco Cat. no. 15630-056), 0.1% BSA, 2 mM IBMX (Sigma-Aldrich Cat. No. 17018, pH 7.4). The potency of the agonist was quantified by determine the concentration that cause 50% activation of hGPR119 evoked increase in cAMP, EC50.

[1] = stimulation of cAMP in HEK293 cells stably expressing human GPR119, 20 min at room temperature, HTRF, read-out: EC50 (μM), Agonist potency at the human GPR119

CS(=O)(=O)c1ccc(-c2ccc(OCC3CCN(C(=O)OCc4ccccc4)CC3)nc2)cc1 [EXAMPLE A2, Benzyl 4-[({5-[4-(methylsulfonyl)phenyl]pyridin-2-yl}oxy)methyl]piperidine-1-carboxylate]
EC50 [1]: 0.11 µM

CN(Cc1ccc(-c2ccc(S(C)(=O)=O)cc2)cn1)C1CCN(C(=O)OC(C)(C)C)CC1 [EXAMPLE A39, tert-Butyl 4-[methyl({5-[4-(methylsulfonyl)phenyl]pyridin-2-yl}methyl)amino]-piperidine-1-carboxylate]
EC50 [1]: 0.139 µM

CN(Cc1ccc(-c2ccc(S(C)(=O)=O)cc2)nc1)C1CCN(C(=O)OC(C)(C)C)CC1 [EXAMPLE B2, tert-Butyl 4-[methyl({6-[4-(methylsulfonyl)phenyl]pyridin-3-yl}methyl)amino]-piperidine-1-carboxylate]
EC50: 0.022 µM
